Measured values from patent US20220313656A1, “NEW CLASS OF ANTIBIOTICS HAVING LOW MIC-VALUES TOWARDS DIFFERENT STRAINS OF BACTERIA” (priority 2019, published 2022).
Like-named read-outs stand apart in the source and are kept apart here.

Experiments:
Experiment in all cases: MIC, serial dilution method (CLSI)
S. aureus USA300 = assay type: cell-based, Staphylococcus aureus
Description: (§1) These inoculums were each in diluted 1:100 in Müller Hinton (MH) broth (Sigma, Copenhagen, Denmark). From the diluted inoculums 100 μl was transferred to each well in a 96-well plate and mixed with the compound to be MIC determined. The plate was incubated for 24 hours at 37° C. (without shaking). The MIC value was determined as the lowest concentration in which no bacterial growth could be visually detected. All MIC determinations were done in duplicates. […] Since all derivatives are new, no control strains (with reference MIC values) were available.

S. aureus CC398 = assay type: cell-based, Staphylococcus aureus
Description: as §1

E. coli APEC O2 = assay type: cell-based, Escherichia coli
Description: as §1

Streptococcus equi = assay type: cell-based
Description: as §1

Bacillus cereus = assay type: cell-based
Description: as §1

Salmonella enteritidis = assay type: cell-based
Description: as §1

Listeria monocytogenes = assay type: cell-based
Description: as §1

E. faecalis = assay type: cell-based, Enterococcus faecalis
Description: as §1

[1] = tested on: Staphylococus pseudintermedius; assay type: cell-based, Staphylococcus pseudintermedius
Description: as §1

E. faecium = assay type: cell-based, Enterococcus faecium
Description: as §1

[2] = Staphylococcus aureus, USA300, 24 h, read-out: MIC
[3] = Staphylococcus aureus, MRSA, 24 h, read-out: MIC
[4] = Escherichia coli, APECO2, 24 h, read-out: MIC
[5] = Salmonella enterica, ENTERITIDIS, 24 h, read-out: MIC
[6] = Enterococcus faecalis, 24 h, read-out: MIC
[7] = Staphylococcus pseudintermedius, 24 h, read-out: MIC
[8] = Enterococcus faecium, 24 h, read-out: MIC
[9] = S. aureus USA300, MH broth, 24 hours at 37° C., set to 256 if growth at […]
[10] = S. aureus CC398 (MRSA strain), MH broth, 24 hours at 37° C., set to 256 if growth at […]
[11] = E. coli APEC O2, MH broth, 24 hours at 37° C., set to 256 if growth at […]
[12] = MH broth, 24 hours at 37° C., set to 256 if growth at […]
[13] = Salmonella enteritidis, MH broth, 24 hours at 37° C., set to 256 if growth at […]
[14] = E. faecalis, MH broth, 24 hours at 37° C., set to 256 if growth at […]
[15] = Staphylococus pseudintermedius, MH broth, 24 hours at 37° C., set to 256 if growth at […]
[16] = E. faecium, MH broth, 24 hours at 37° C., set to 256 if growth at […]

With `CC(C)CC[N+](C)(C)CCCN1c2ccccc2Sc2ccc(Cl)cc21.[Br-]` [Compound S5, N-(3-(2-chloro-10H-phenothiazin-10-yl)propyl)-N,N,3-trimethylbutan-1-aminium bromide] the MIC (S. aureus USA300; [2]) was 16 µg/mL, the MIC (S. aureus CC398; [3]) was 16 µg/mL and the MIC (E. coli APEC O2; [4]) was 128 µg/mL. For the same compound, the MIC (Streptococcus equi; 24 h, read-out: MIC) was 8 µg/mL, the MIC (Bacillus cereus; 24 h, read-out: MIC) was 64 µg/mL and the MIC (Salmonella enteritidis; [5]) was 128 µg/mL. The MIC (Listeria monocytogenes; 24 h, read-out: MIC) was 32 µg/mL, the MIC (E. faecalis; [6]) was 32 µg/mL and the MIC [1, 7] was 8 µg/mL. The MIC (E. faecium; [8]) was 32 µg/mL.

`C[N+](C)(CCCN1c2ccccc2Sc2ccc(Cl)cc21)Cc1ccccc1` [Chlorpromazine Benzyl] showed an MIC (S. aureus USA300; [9]) of 8 µg/mL, an MIC (S. aureus CC398; [10]) of 4 µg/mL and an MIC (E. coli APEC O2; [11]) of 64 µg/mL. For the same compound, the MIC (Streptococcus equi; [12]) was 2 µg/mL, the MIC (Bacillus cereus; [12]) was 4 µg/mL and the MIC (Salmonella enteritidis; [13]) was 64 µg/mL. For the same compound, the MIC (Listeria monocytogenes; [12]) was 8 µg/mL, the MIC (E. faecalis; [14]) was 16 µg/mL and the MIC [1, 15] was 2 µg/mL. It also gave an MIC (E. faecium; [16]) of 16 µg/mL.

Work on `C=CC[N+](C)(C)C(C)CN1c2ccccc2Sc2ccccc21.[Br-]` (stereo not drawn) [Compound S41, N-(1-(10H-phenothiazin-10-yl)propan-2-yl)-N,N-dimethylprop-2-en-1-aminium bromide] yielded an MIC (S. aureus USA300; [2]) of 64 µg/mL, an MIC (S. aureus CC398; [3]) of 64 µg/mL and an MIC (E. coli APEC O2; [4]) of 256 µg/mL. For the same compound, the MIC (Streptococcus equi; 24 h, read-out: MIC) was 32 µg/mL, the MIC (Bacillus cereus; 24 h, read-out: MIC) was 256 µg/mL and the MIC (Salmonella enteritidis; [5]) was 256 µg/mL. For the same compound, the MIC (Listeria monocytogenes; 24 h, read-out: MIC) was 256 µg/mL, the MIC (E. faecalis; [6]) was 256 µg/mL and the MIC [1, 7] was 64 µg/mL. It also gave an MIC (E. faecium; [8]) of 128 µg/mL.

Compound `CCCCC[N+](C)(C)CCCN1c2ccccc2Sc2ccc(Cl)cc21.[Br-]` [Compound S6, N-(3-(2-chloro-10H-phenothiazin-10-yl)propyl)-N,N-dimethylpentan-1-aminium bromide] has an MIC (S. aureus USA300; [2]) of 64 µg/mL, an MIC (S. aureus CC398; [3]) of 64 µg/mL and an MIC (E. coli APEC O2; [4]) of 256 µg/mL. For the same compound, the MIC (Streptococcus equi; 24 h, read-out: MIC) was 32 µg/mL, the MIC (Bacillus cereus; 24 h, read-out: MIC) was 64 µg/mL and the MIC (Salmonella enteritidis; [5]) was 256 µg/mL. It also gave an MIC (Listeria monocytogenes; 24 h, read-out: MIC) of 64 µg/mL, an MIC (E. faecalis; [6]) of 128 µg/mL and an MIC [1, 7] of 32 µg/mL. The MIC (E. faecium; [8]) was 64 µg/mL.

Compound `C[N+](C)(C)CC/C=C1/c2ccccc2Sc2ccc(Cl)cc21.[I-]` [Compound S35, (Z)-3-(2-chloro-9H-thioxanthen-9-ylidene)-N,N,N-trimethylpropan-1-aminium iodide] has an MIC (S. aureus USA300; [2]) of 256 µg/mL, an MIC (S. aureus CC398; [3]) of 256 µg/mL and an MIC (E. coli APEC O2; [4]) of 256 µg/mL. It also gave an MIC (Streptococcus equi; 24 h, read-out: MIC) of 256 µg/mL, an MIC (Bacillus cereus; 24 h, read-out: MIC) of 128 µg/mL and an MIC (Salmonella enteritidis; [5]) of 256 µg/mL. The MIC (Listeria monocytogenes; 24 h, read-out: MIC) was 256 µg/mL, the MIC (E. faecalis; [6]) was 256 µg/mL and the MIC [1, 7] was 256 µg/mL. It also gave an MIC (E. faecium; [8]) of 256 µg/mL.

Work on `CC(C)[N+](C)(C)CCCN1c2ccccc2Sc2ccc(Cl)cc21.[Br-]` [Compound S4, 3-(2-chloro-10H-phenothiazin-10-yl)-N-isopropyl-N,N-dimethylpropan-1-aminium bromide] yielded an MIC (S. aureus USA300; [2]) of 16 µg/mL, an MIC (S. aureus CC398; [3]) of 16 µg/mL and an MIC (E. coli APEC O2; [4]) of 128 µg/mL. For the same compound, the MIC (Streptococcus equi; 24 h, read-out: MIC) was 32 µg/mL, the MIC (Bacillus cereus; 24 h, read-out: MIC) was 32 µg/mL and the MIC (Salmonella enteritidis; [5]) was 128 µg/mL. It also gave an MIC (Listeria monocytogenes; 24 h, read-out: MIC) of 32 µg/mL, an MIC (E. faecalis; [6]) of 128 µg/mL and an MIC [1, 7] of 8 µg/mL. It also gave an MIC (E. faecium; [8]) of 64 µg/mL.

`C=CC[N+]1(C)CCCCC1CCN1c2ccccc2Sc2ccc(SC)cc21.[Br-]` (stereo not drawn) [Compound S42, 1-allyl-1-methyl-2-(2-(2-(methylthio)-10H-phenothiazin-10-yl)ethyl)piperidin-1-ium bromide] gave an MIC (S. aureus USA300; [2]) of 4 µg/mL, an MIC (S. aureus CC398; [3]) of 4 µg/mL and an MIC (E. coli APEC O2; [4]) of 256 µg/mL. It also gave an MIC (Streptococcus equi; 24 h, read-out: MIC) of 4 µg/mL, an MIC (Bacillus cereus; 24 h, read-out: MIC) of 64 µg/mL and an MIC (Salmonella enteritidis; [5]) of 128 µg/mL. The MIC (Listeria monocytogenes; 24 h, read-out: MIC) was 32 µg/mL, the MIC (E. faecalis; [6]) was 16 µg/mL and the MIC [1, 7] was 4 µg/mL. For the same compound, the MIC (E. faecium; [8]) was 16 µg/mL.

Work on `CC[N+](C)(C)C(C)CN1c2ccccc2Sc2ccccc21.[Br-]` (stereo not drawn) [Compound S14, N-ethyl-N,N-dimethyl-1-(10H-phenothiazin-10-yl)propan-2-aminium bromide] yielded an MIC (S. aureus USA300; [2]) of 128 µg/mL, an MIC (S. aureus CC398; [3]) of 64 µg/mL and an MIC (E. coli APEC O2; [4]) of 256 µg/mL. It also gave an MIC (Streptococcus equi; 24 h, read-out: MIC) of 32 µg/mL, an MIC (Bacillus cereus; 24 h, read-out: MIC) of 256 µg/mL and an MIC (Salmonella enteritidis; [5]) of 256 µg/mL. The MIC (Listeria monocytogenes; 24 h, read-out: MIC) was 32 µg/mL, the MIC (E. faecalis; [6]) was 256 µg/mL and the MIC [1, 7] was 32 µg/mL. It also gave an MIC (E. faecium; [8]) of 128 µg/mL.

With `C=CC[N+](C)(C)CCC=C1c2ccccc2Sc2ccc(Cl)cc21` [Chlorprothixene 2-Propene-1-yl] the MIC (S. aureus USA300; [9]) was 16 µg/mL, the MIC (S. aureus CC398; [10]) was 16 µg/mL and the MIC (E. coli APEC O2; [11]) was 128 µg/mL. The MIC (Streptococcus equi; [12]) was 8 µg/mL, the MIC (Bacillus cereus; [12]) was 32 µg/mL and the MIC (Salmonella enteritidis; [13]) was 128 µg/mL. The MIC (Listeria monocytogenes; [12]) was 32 µg/mL, the MIC (E. faecalis; [14]) was 128 µg/mL and the MIC [1, 15] was 8 µg/mL. For the same compound, the MIC (E. faecium; [16]) was 64 µg/mL.
